Results filed as inconclusive are left out. Calls of active or inactive are those of the source. No rule for the calls is given here.
Legend:
[1] = T. cruzi growth inhibition in host cells, dose response, cell-based, plate reader, dry powder, set 2 (AID 652275); conditions: T. cruzi proliferation in host cells, plate reader; at 16 µM (top of the series)
[2] = system: T. cruzi proliferation in host cells, plate reader; assay: as above

CC(C)N1C[C@@H](C)[C@H](CN(C)Cc2ccc(Oc3ccccc3)cc2)Oc2c(C(=O)O)cccc2C1=O
activity change, negative = inhibition [1]: -33.8% (inactive)

CC(C)N1C[C@@H](CN)Oc2c(NC(=O)c3ccncc3)cccc2C1=O
activity change, negative = inhibition [1]: -29% (inactive)

CN(C)CC#Cc1cccc(-c2nc(C(=O)O)cc3c2[C@H](CCO)N(S(=O)C(C)(C)C)C3)c1 (stereo partly specified)
activity change, negative = inhibition [1]: -23.9% (inactive)

COCCNC(=O)c1cc2c(c(-c3cccc(C#CCN(C)C)c3)n1)[C@H](CCO)N(S(=O)C(C)(C)C)C2 (stereo partly specified)
activity change, negative = inhibition [1]: -35.9% (inactive)

CN(C)CC#Cc1cccc(-c2nc(C(=O)N3CCN(C)CC3)cc3c2[C@H](CCO)N(S(=O)C(C)(C)C)C3)c1 (stereo partly specified)
activity change, negative = inhibition [1]: 1.54% (inactive)

C[C@@H]1CN([C@@H](C)CO)C(=O)c2cccc(NC(=O)c3ccncc3)c2O[C@H]1CN(C)Cc1ccc(Oc2ccccc2)cc1
AC50 [2]: 1.11 nM

C[C@@H]1CN([C@@H](C)CO)C(=O)c2cccc(NC(=O)c3ccncc3)c2O[C@H]1CN(C)C
activity change, negative = inhibition [1]: 18.7% (inactive)

CC(C)N1C[C@@H](C)[C@H](CN(C)Cc2ccc(OCCCC(F)(F)C(F)(F)C(F)(F)C(F)(F)C(F)(F)C(F)(F)C(F)(F)C(F)(F)F)cc2)Oc2c(NC(=O)c3ccncc3)cccc2C1=O
activity change, negative = inhibition [1]: 33.7% (inactive)

CC(C)N1C[C@@H](C)[C@H](CN(C)C(=O)OC(C)(C)C)Oc2c(C#N)cccc2C1=O
activity change, negative = inhibition [1]: -37% (inactive)

CN(C)CC#Cc1cccc(-c2nc(C(=O)N3CCN(C)CC3)cc3c2[C@@H](CCO)N(S(=O)C(C)(C)C)C3)c1 (stereo partly specified)
activity change, negative = inhibition [1]: -4.18% (inactive)

C[C@@H](CO)N1CC[C@H](CNC(=O)OC(C)(C)C)Oc2c(cccc2[N+](=O)[O-])C1=O
activity change, negative = inhibition [1]: -13.9% (inactive)
